Key:
human PBMC = experiment: Toxicity to human PBMC (Example 5); type: cell-based
Description: (§1) Peripheral blood was drawn from healthy volunteers (with approval from the relevant ethical committee in Denmark). Heparinized blood was diluted 1/1 v/v with RPMI and were subjected to Ficoll density centrifugation within 2 h of drawing. Plasma was collected from the top from individual donors and was kept on ice until it was used at 2% in the culture medium (autologous culture medium). Isolated PBMC were resuspended in autologous culture medium and seeded in 96-well culture plates with 255.000 cells per well in a total of 200 μl. […] The concentrations used for stimulation were optimized on 3 different donors in initial experiments, for LPS two different concentrations were used to be sure to be on a cytokine level that is possible to modulate. In some experiments PBMC were treated with Dexamethason and Indomethacin alone and together with LPS or LTA as a control on downregulation of inflammatory cytokines. The supernatants were collected after incubation at 37° C. for 24 hours, and stored at −80° C. until cytokine measurement. Viability was measured by Alamar Blue (Biosource, DALL 1100) in all experiments and in some cases also by MTS (Promega) according to manufacturer's instruction and was in some experiments also judged by counting of the cells by a Nucleocounter.
(§2) Example 5 was carried out essentially as described in Example 4.

[1] = test system: human peripheral blood mononuclear cells (PBMC); experiment: IL-10 production from LPS-treated human PBMC, CBA (Example 5); type: cell-based; conditions: for IL-10 / IL-10 % of control: Table 22
Description: as §1
(§3) Cytokine production in supernatants was measured by flow cytometry with a human inflammation cytometric bead array (CBA) according to manufacturer's instructions (BD) on a FACSarray flow cytometer. The following cytokines were measured: IL-8, IL-1β, IL-10, TNF, IL-12 p70, IL-6. In some experiments, cytokines were measured by ELISA kits from R&D systems (IL-10, TNF-α, IL-1β) according to the manufacturer′ instruction.
(§4) In each table, all samples were tested on the same donor. SD means standard deviation.

[2] = test system: human peripheral blood mononuclear cells (PBMC); experiment: TNF production from LPS-treated human PBMC, CBA (Example 5); type: cell-based; conditions: Table 21
Description: as §1, §3, §2, §4

[3] = test system: human peripheral blood mononuclear cells (PBMC); experiment: IL-1β production from LPS-treated human PBMC, CBA (Example 5, Table 23); type: cell-based
Description: as §1, §3, §2, §4

[4] = test system: human peripheral blood mononuclear cells (PBMC); experiment: TNF production from LPS-treated human PBMC, CBA (Example 7, Table 26); type: cell-based
Description: as §1, §3
(§5) Example 7 was carried out essentially as described in Example 4 for human PBMCs. […] The amino acid sequence of mBD3 is shown in SEQ ID NO:6. Mouse PBMCs were prepared as described below.

[5] = test system: mouse peripheral blood mononuclear cells (PBMC); experiment: TNF production from LPS-treated mouse PBMC, CBA (Example 7); type: cell-based, mouse (NMRI)
Description: as §5
Mouse peripheral blood mononuclear cells were isolated from blood of ten NMRI mice. In short, heparinized blood was diluted 1/1 v/v with RPMI and subjected to Ficoll density centrifugation within 2 h of drawing. Plasma was collected from the top and discarded. Isolated PBMC were resuspended in culture medium (RPMI 1640 (Gibco, 42401) w/ 1% penicillin and streptomycin and 1% L-Glutamine) and seeded in 96-well culture plates with 115.500 cells per well in a total of 200 μl. […] The supernatants were collected after incubation at 37° C. for 24 hours, and stored at −80° C. until cytokine measurement.
Cytokine production in supernatants was measured by flow cytometry with a mouse inflammation cytometric bead array (CBA) according to manufacturer's instructions (BD) on a FACSarray flow cytometer.

[6] = LPS 0.6 ng/ml, test compound 1 μg/ml
[7] = LPS 20 ng/ml, test compound 1 μg/ml
[8] = Medium (no LPS), test compound 1 μg/ml
[9] = LPS 0.6 ng/ml, test compound 10 μg/ml
[10] = LPS 20 ng/ml, test compound 10 μg/ml
[11] = Medium (no LPS), test compound 10 μg/ml

Substance	toxicity to the cells (human PBMC; 40 μg/ml)	IL-10 ([1]; 1 μg/ml, LPS 0.6 ng/ml) [pg/mL]	IL-10 % of control ([1]; 1 μg/ml, LPS 0.6 ng/ml) [%]	IL-10 % of control ([1]; 1 μg/ml, LPS 20 ng/ml) [%]	IL-10 ([1]; 1 μg/ml, Medium) [pg/mL]	TNF ([2]; 1 μg/ml, LPS 0.6 ng/ml) [pg/mL]	TNF % of control ([2]; 1 μg/ml, LPS 0.6 ng/ml) [%]	TNF ([2]; 1 μg/ml, LPS 20 ng/ml) [pg/mL]	TNF % of control ([2]; 1 μg/ml, LPS 20 ng/ml) [%]	TNF ([2]; 1 μg/ml, Medium) [pg/mL]	IL-1β [3, 6] [pg/mL]	IL-1β % of control [3, 6] [%]	IL-1β [3, 7] [pg/mL]	IL-1β % of control [3, 7] [%]	IL-1β [3, 8] [pg/mL]	also measured
hBD3: human beta defensin 3 (SEQ ID NO:3), prepared using chemical synthesis	toxic to the cells	71	107	137	0	528	73	451	21	0	331	45	568	22	0	toxicity to the cells (human PBMC; 10 μg/ml): toxic to the cells
hBD4 variant: consists of amino acids 3-39 of hBD4, SEQ ID NO:5 (ELDRICGYGTARCRKKCRSQEYRIGRCPNTYACCLRK)	toxic to the cells	90	136	157	0	468	64	778	36	0	286	39	1004	40	0	IL-10 ([1]; 10 μg/ml, LPS 0.6 ng/ml): 92 pg/mL; IL-10 % of control ([1]; 10 μg/ml, LPS 0.6 ng/ml): 139%; IL-10 ([1]; 10 μg/ml, LPS 20 ng/ml): 187 pg/mL; IL-10 % of control ([1]; 10 μg/ml, LPS 20 ng/ml): 168%; IL-10 ([1]; 10 μg/ml, Medium): 0 pg/mL; Secretion of IL-10 ([1]; human PBMC with LPS, summary of Table 22): significantly and dose-dependently enhanced; TNF ([2]; 10 μg/ml, LPS 0.6 ng/ml): 211 pg/mL; TNF % of control ([2]; 10 μg/ml, LPS 0.6 ng/ml): 29%; TNF ([2]; 10 μg/ml, LPS 20 ng/ml): 139 pg/mL; TNF % of control ([2]; 10 μg/ml, LPS 20 ng/ml): 6%; TNF ([2]; 10 μg/ml, Medium): 0 pg/mL; IL-1β [3, 9]: 163 pg/mL; IL-1β % of control [3, 9]: 22%; IL-1β [3, 10]: 463 pg/mL; IL-1β % of control [3, 10]: 18%; IL-1β [3, 11]: 0 pg/mL
mBD3: mouse beta defensin 3 (SEQ ID NO:6), prepared with the same protocol as hBD2 (KINNPVSCLRKGGRCWNRCIGNTRQIGSCGVPFLKCCKRK; mat_peptide (1)..(40); listed as Mus musculus)																TNF [4, 7]: 384 pg/mL; TNF [4, 10]: 51 pg/mL; TNF ([4]; LPS 20 ng/ml, test compound 100 μg/ml): 166 pg/mL; TNF [4, 8]: 2 pg/mL; TNF [4, 11]: 2 pg/mL; TNF ([4]; Medium (no LPS), test compound 100 μg/ml): 39 pg/mL; secretion of TNF ([4]; human PBMCs (Table 26)): downregulating the secretion of TNF from human PBMCs to the same extend as hBD2 and dexamethason; TNF ([5]; 1 μg/ml, LPS 20 ng/ml): 1600 pg/mL; TNF ([5]; 1 μg/ml, Medium): 347 pg/mL; TNF ([5]; 10 μg/ml, LPS 20 ng/ml): 297 pg/mL; TNF ([5]; 10 μg/ml, Medium): 180 pg/mL; TNF ([5]; 100 μg/ml, LPS 20 ng/ml): 195 pg/mL; TNF ([5]; 100 μg/ml, Medium): 182 pg/mL

From patent US9279010B2, “Treatment of inflammatory bowel diseases with mammal beta defensins” (Defensin Therapeutics ApS, priority 2008, dated 2016)
